From US20250051391A1, “PEPTIDE INHIBITORS AND METHODS FOR INHIBITING PROTEIN AGGREGATION IN NEURONS AND NEURODEGENERATIVE DISEASES” (THE GOVERNING COUNCIL OF THE UNIVERSITY OF TORONTO, priority 2021, published 2025)
Ends that are not written are not given here.

How the values were obtained:
[1] = biological target: T1, CHMP2B-VPS4 interaction (Homo sapiens, UniProt Q9UQN3); assay: Co-immunoprecipitation: disruption of VPS4B-CHMP2B interaction; assay type: cell-based; settings: Flag-VPS4B, HA-tagged CHMP proteins, GFP-tagged peptides
T1 construct: expressed in transfected cells; host or cells: HEK293T
Method: HEK293T cells were co-transfected with Flag-tagged target protein, HA-tagged source protein, and GFP-tagged peptide or GFP. Cells were lysed 48 h after transfections with radioimmune precipitation assay buffer (50 mM Tris-HCl pH7.4, 1% Nonidet P-40, 150 mM NaCl, 1 mM EDTA, 10 mM Na3VO4, 10 mM sodium pyrophosphate, 25 mM NaF, 1× protease inhibitor mixture (Sigma)) for 30 min at 4° C. and coimmunoprecipitated with Flag beads (Clontech). The resulting immunocomplexes were analyzed by immunoblot using the appropriate antibodies. Protein samples were separated using 4-20% Mini-PROTEAN Tris-glycine gels (Bio-Rad) transferred to PVDF membranes and blocked in 5% milk containing PBS-Tween-20 (0.1%) for 1 h. PVDF membranes were then incubated with specified primary antibodies followed by incubation with horseradish peroxidase-conjugated secondary antibodies (Santa Cruz Biotechnology) and detected using enhanced chemiluminescence (GE Healthcare).

[2] = test system: rat primary cortical neurons; assay: Rat primary cortical neurons transduced with AAVs, immunofluorescence and immunoblot; assay type: cell-based
Method: Infected neurons were scraped from 6-well dishes and lysed with RIPA buffer containing protease inhibitor cocktail (Roche). The Triton X-100 soluble fraction was then separated from the insoluble pellet by centrifugation. Protein concentration was quantified using the DC protein assay (BioRad). For each condition, 20 μg of protein lysate was run on 4-15% acrylamide gels (BioRad) and subsequently transferred onto a polyvinylidene difluoride (PVDF) membrane. Blots were blocked with 5% skim milk in TBS+0.01% Tween-20 (TBS-T) for 1 h prior to incubation with primary antibody overnight at 4° C. Blots were subsequently washed 3 times in TBS-T for 10 minutes per wash, incubated in species specific secondary antibody for 1 h at 21° C., washed again, and then developed using ECL immunoblotting substrate (Pierce) and visualized on HyBlot CL autoradiographic film (Denville Scientific).
Pregnant rats (E17) of the Sprague-Dawley strain were purchased from Envigo. Embryos were surgically removed from the mothers and cortices dissected in Hanks Balanced salt solution (Gibco). The meninges were removed, and cells were dissociated using a papain dissociation system (Worthington) before being resuspended in Neurobasal medium A supplemented with antibiotic-antimycotic solution (Gibco), L-glutamine substitute (GlutaMAX™; Gibco) and factor B27 (Gibco). Cells were plated on poly-D-lysine coated glass coverslips at a density of 5×10^5 cells/well, or on poly-D-lysine coated 6-well cell culture plates at a density of 2×10^6 cells/well, and incubated at 37° C. in 5% CO2 with half media changes every 3 days. Cells were transduced with AAVs 2 days post-isolation at a multiplicity of infection (MOI) of 3000. Media containing AAV vectors were removed after 72 h and cells were fixed with 4% PFA for immunofluorescence staining or lysed for immunoblotting at 8 days post-isolation.
After fixation, cells were permeabilized with 0.2% Triton X-100 for 15 min, washed 3 times with PBS and then incubated with blocking solution (1% BSA, 22.52 mg/mL glycine, 0.1% Tween-20 in PBS) for 1 h. Primary antibodies were diluted in blocking solution and incubated overnight at 4° C. Following three washes with PBS, cells were next incubated with fluorescent secondary antibodies diluted in blocking solution for 1 h at room temperature. Following another 3 PBS washes, nuclei were counterstained with DAPI (ThermoFisher) and then coverslips were mounted on slides using fluorescence mounting medium (DAKO) and sealed using clear nail varnish.
Confocal images of primary cortical neurons, dopaminergic neurons, and LAMP1 staining within the SN were processed using Imaris software (Oxford instruments). Z stacks were projected to give a 3D reconstruction of the field of view and mean pixel intensity per GFP^+ cell (or RFP^+ cell for V1S/SV2 experiments) was calculated for a-syn or LAMP1 signal using the software's surfaces module. For LAMP1 staining within the SN, the number of LAMP1^+ puncta within GFP^+ cells was calculated for each field of view; 3 fields of view were imaged/animal.

[3] = test system: SNCA triplication fibroblasts; assay: SNCA triplication fibroblasts from a PD patient transduced with AAV peptides; assay type: cell-based, human
Method: HEK293T cells, tet-off split luciferase a-syn cells, tet-off parent cells and SH-SY5Y cell lines were maintained in DMEM (ATCC) supplemented with 10% FBS and 1% pen/strep/glutamine, and the appropriate selection antibiotics when required. tet-off split luciferase a-syn cells and tet-off parent cells were kept with doxycycline at 1 ng/mL for inhibition of gene expression. SNCA triplication fibroblasts were obtained from NINDS (National Institute of Neurological Disorders and Stroke) and maintained in DMEM supplemented with 10% FBS and 1% pen/strep/glutamine. HA antibodies were obtained from Santa Cruz (7392) and Flag antibodies were purchased from Sigma (A8592). GFP antibodies were purchased from Abcam (ab290).
The Lysosome Intracellular Activity Assay kit was purchased from Abcam and used per manufacturer's instructions (ab234622). […] For HEK293 cells, cells were re-suspended in PBS containing DMSO or Leupeptin and analyzed by FACS. […]
After fixation, cells were permeabilized with 0.2% Triton X-100 for 15 min, washed 3 times with PBS and then incubated with blocking solution (1% BSA, 22.52 mg/mL glycine, 0.1% Tween-20 in PBS) for 1 h. […] Following another 3 PBS washes, nuclei were counterstained with DAPI (ThermoFisher) and then coverslips were mounted on slides using fluorescence mounting medium (DAKO) and sealed using clear nail varnish.

T1 sequence (Q9UQN3 whole entry): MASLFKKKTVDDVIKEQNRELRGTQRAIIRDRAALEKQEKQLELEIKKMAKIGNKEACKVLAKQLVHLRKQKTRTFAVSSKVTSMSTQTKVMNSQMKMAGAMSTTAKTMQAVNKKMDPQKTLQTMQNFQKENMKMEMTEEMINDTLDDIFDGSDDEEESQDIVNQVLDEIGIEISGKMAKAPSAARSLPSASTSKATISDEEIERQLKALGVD

Sequence: DEEIERQLKALG [PDpep1.3]
- effect on CHMP2B-VPS4 interaction (co-immunoprecipitation) [1]: disrupted the interaction between VPS4B and CHMP2B
- effect on CHMP2B-VPS4 interaction (co-immunoprecipitation) ([1]; listed as Pdpep1.3): inhibits the CHMP2B-VPS4 interaction
- total a-syn fluorescence ([2]; neurons with V1S and SV2 or V1S alone (WT a-syn), RFP-tagged peptide vs Scramble1.3): significant lowering
- LAMP1 levels ([2]; rat cortical neurons expressing human A53T a-syn): restored LAMP1 levels
- YFP fluorescence from co-expressed V1S and SV2 (a-syn oligomers) ([2]; rat primary cortical neurons): reduced YFP fluorescence
- endogenous a-syn fluorescence intensity ([2]; rat primary cortical neurons): reduced fluorescence intensity
- total A53T a-syn protein levels by immunoblotting of neuronal lysates ([2]; rat primary cortical neurons): reduction
- A53T a-syn fluorescence intensity ([2]; rat primary cortical neurons, AAV A53T a-syn plus GFP-tagged peptide, vs Scramble1.3): significant decrease
- fluorescence of YFP alone ([2]; rat primary cortical neurons, control): no effect
- levels of truncated A53T a-syn lacking amino acids 103-140 (HA immunostaining) ([2]; rat primary cortical neurons, vs Scramble1.3): did not reduce
- lysosomal activity (lysosomal flux assay) [3]: increased lysosomal activity
- a-syn fluorescence ([3]; RFP-tagged peptides, vs Scramble1.3): reduced a-syn fluorescence
